Numbered stars: 1 amine (or outer) side, 2 acyl side, 3 side chain; on linkers, the order of the positions; unused ones are H or OH. Bridge positions count the residues as written; N and C are the ends. Square brackets hold non-standard residues; d marks the D form. Ends that are not written are not given here. Peptide text beside a SMILES is read from it. * marks the point of attachment. C20 diacid = O=C(O)CCCCCCCCCCCCCCCCCCC(=O)*; C18 diacid = O=C(O)CCCCCCCCCCCCCCCCC(=O)*; βAsp = O=C(O)[C@H](CC(=O)[*:2])N[*:1]; Hyp = O=C(O)[C@@H]1C[C@@H](O)CN1; AEEA = NCCOCCOCC(=O)O
How the values were obtained:
[1] = Efficacy assay in SD rats, dose-dependent study, single subcutaneous dose; format: in vivo; conditions: Table 9
Source text: […] Food intake was the amount of food consumed by each of the animals per day.

[2] = Heat accelerated stability assay of polypeptide solutions (40° C., pH about 7.4), reversed phase chromatography; format: physicochemical
Outline: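 Polypeptide derivative lyophilisate (1 mg/mL) with sodium dihydrogen phosphate (1.42 mg/mL) in water, pH about 7.4, sterile-filtered, vialed and held at 40° C; sampled on days 7 and 26. After centrifugation, concentration and purity (target/total peak area) by C18 RP-HPLC, TFA/ACN gradient, 280 and 214 nm.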

[3] = dog, in vivo, 7 mg
Method: Whole blood of the animals was collected pre dose (−10 min) and 2 h, 4 h, and 8 h post dose on Day 1, pre dose (−10 min) and 2 h and 4 h post dose on Day 2-Day 4, and pre dose (−10 min) and 2 h, 4 h, 8 h, 24 h, 48 h, and 72 h post dose on Day 5, and processed into plasma using heparin sodium as an anticoagulant. […] Experimental data was plotted using GraphPad Prism9.3.1.

amylin receptor (hAMY3R) [4] = target: T1, amylin receptor (hAMY3R) (Homo sapiens, UniProt O60896+P30988); assay: Amylin receptor agonism testing, CRE-luciferase assay in stably transfected CHO-K1/Ga15/AMY3 cells; format: cell-based; conditions: incubation of 4 hours (N2 and N3 retested); Table 3 lower part; read-out: EC50, activity against the amylin receptor in cells
T1 construct: host or cells: CHO-K1/Ga15/AMY3 cells, further stably transfected with a CRE-luciferase plasmid
T1 sequence (P30988 25-474): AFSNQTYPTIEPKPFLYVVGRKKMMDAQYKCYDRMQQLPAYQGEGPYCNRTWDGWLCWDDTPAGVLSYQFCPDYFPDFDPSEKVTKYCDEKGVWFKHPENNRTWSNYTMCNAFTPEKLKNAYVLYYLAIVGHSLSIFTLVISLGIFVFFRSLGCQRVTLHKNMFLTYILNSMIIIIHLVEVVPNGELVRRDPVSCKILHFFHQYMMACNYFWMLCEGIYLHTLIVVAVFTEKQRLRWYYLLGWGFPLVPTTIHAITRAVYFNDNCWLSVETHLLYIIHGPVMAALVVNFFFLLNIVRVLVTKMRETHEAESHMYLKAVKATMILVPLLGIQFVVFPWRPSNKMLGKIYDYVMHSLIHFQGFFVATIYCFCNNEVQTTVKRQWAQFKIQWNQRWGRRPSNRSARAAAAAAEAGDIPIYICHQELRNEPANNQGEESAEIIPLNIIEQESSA
T1 sequence (O60896 24-148): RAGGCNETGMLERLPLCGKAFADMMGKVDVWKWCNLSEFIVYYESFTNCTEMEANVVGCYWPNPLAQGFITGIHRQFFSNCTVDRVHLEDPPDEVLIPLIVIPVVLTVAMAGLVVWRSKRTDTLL
Source text: The objective of this assay is to test the potency of the polypeptide derivatives in the present application on amylin and calcitonin receptors in vitro using a luciferase assay.
Using the standard protocol for construction of an amylin receptor/CRE-luc cell line, CHO-K1/Ga15/AMY3 cells (purchased from GenScript, with the calcitonin receptor and the receptor activity modifying peptide (RAMP) constructed already) were transfected with a plasmid containing a luciferase expression cassette driven by multiple copies of cAMP response elements (CREs). The cells were cultured in an F12 medium containing 200 ug/mL Zeocin, 2 ug/mL puromycin, 100 ug/mL hygromycin, and 400 ug/mL G418 to afford a stably transfected amylin receptor/CRE-luc cell line.
To each well of a white 96-well plate was added 50 μL of the tested sample solution at a respective concentration.
The stably transfected amylin receptor/CRE-luc CHO cells were resuspended in the growth medium at a certain density, and 50 μL of the cell suspension was added at a density of about 20,000 cells per well to the white 96-well plate containing the tested sample solution. After incubation of 24 hours at 37° C. and 5% CO2, 100 μL of a Luciferase substrate was added to each well, incubated for 3 minutes, and finally was tested for luminescence on SpectraMax L (Molecular Devices) with the software SoftMax Pro 7.0.3 GxP. A standard curve was plotted using the fluorescent intensities for calculation of EC50.

amylin receptor (hAMY3R) [5] = target: T2, amylin receptor (hAMY3R) (human (printed as hAMY3R), UniProt P30988 25-474; O60896 24-148); assay: cell-based or functional assay
T2 sequence (looked up) 1: T1 sequence (P30988 25-474)
T2 sequence (looked up) 2: T1 sequence (O60896 24-148)

CC[C@H](C)[C@H](NC(=O)[C@@H]1CCCN1C(=O)CNC(=O)[C@H](Cc1ccccc1)NC(=O)[C@H](CC(N)=O)NC(=O)[C@H](CC(N)=O)NC(=O)[C@H](CO)NC(=O)[C@H](CO)NC(=O)[C@H](Cc1c[nH]cn1)NC(=O)[C@H](CCCNC(=N)N)NC(=O)[C@H](CC(C)C)NC(=O)[C@H](Cc1ccccc1)NC(=O)[C@H](CCC(=O)O)NC(=O)[C@H](C)NC(=O)[C@H](CC(C)C)NC(=O)[C@H](CCCNC(=N)N)NC(=O)[C@H](CCC(N)=O)NC(=O)[C@@H](NC(=O)[C@H](C)NC(=O)[C@@H]1CSSC[C@H](NC(=O)[C@H](CCCCN)NC(=O)CC[C@H](NC(=O)CCCCCCCCCCCCCCCCCCC(=O)O)C(=O)O)C(=O)N[C@@H](CC(N)=O)C(=O)N[C@@H]([C@@H](C)O)C(=O)N[C@@H](C)C(=O)N[C@@H]([C@@H](C)O)C(=O)N1)[C@@H](C)O)C(=O)N[C@@H](CC(C)C)C(=O)N1CCC[C@H]1C(=O)N1CCC[C@H]1C(=O)N[C@H](C(=O)N[C@@H](CC(N)=O)C(=O)N[C@H](C(=O)NCC(=O)N[C@@H](CO)C(=O)N[C@@H](CC(N)=O)C(=O)N[C@H](C(=O)N1CCC[C@H]1C(N)=O)[C@@H](C)O)C(C)C)[C@@H](C)O [D1, Cagrilintide]
24 h food intake ([1]; 30 nmol/kg single s.c. dose): 5.250 g
24 h weight change ([1]; 30 nmol/kg single s.c. dose): −6.416%
24 h food intake ([1]; 100 nmol/kg single s.c. dose): 2.100 g
24 h weight change ([1]; 100 nmol/kg single s.c. dose): −9.103%
purity decrease ([2]; Day 7 of the accelerated testing): 12.73%
appearance (clarity) of the solution ([2]; Day 26 of the heat accelerated assay): foreign matters were readily observable
Purity change on 7 d ([2]; reversed phase chromatography 214 nm, 40° C., Day 7, purity on 7 d − purity on 0 d): −12.73%

CC[C@H](C)[C@H](NC(=O)[C@@H]1CCCN1C(=O)[C@H](CCCCN)NC(=O)[C@H](CC(C)C)NC(=O)[C@H](CC(N)=O)NC(=O)[C@H](CC(N)=O)NC(=O)[C@H](CO)NC(=O)[C@H](CO)NC(=O)[C@H](Cc1c[nH]cn1)NC(=O)[C@H](CCCNC(=N)N)NC(=O)[C@H](CC(C)C)NC(=O)[C@H](Cc1ccccc1)NC(=O)[C@H](CC(=O)O)NC(=O)[C@H](C)NC(=O)[C@H](CC(C)C)NC(=O)[C@H](CCCNC(=N)N)NC(=O)[C@H](CCC(N)=O)NC(=O)[C@@H](NC(=O)[C@H](C)NC(=O)[C@@H]1CSSC[C@H](NC(=O)[C@H](CCCCN)NC(=O)COCCOCCNC(=O)COCCOCCNC(=O)C[C@H](NC(=O)CCCCCCCCCCCCCCCCC(=O)O)C(=O)O)C(=O)N[C@@H](CC(N)=O)C(=O)N[C@@H]([C@@H](C)O)C(=O)N[C@@H](C)C(=O)N[C@@H]([C@@H](C)O)C(=O)N1)[C@@H](C)O)C(=O)N[C@@H](CC(C)C)C(=O)N1CCC[C@H]1C(=O)N1CCC[C@H]1C(=O)N[C@H](C(=O)N[C@@H](CC(N)=O)C(=O)N[C@H](C(=O)NCC(=O)N[C@@H](CO)C(=O)N[C@@H](CC(N)=O)C(=O)N[C@H](C(=O)N1C[C@H](O)C[C@H]1C(N)=O)[C@@H](C)O)C(C)C)[C@@H](C)O [N3] ({C18 diacid-βAsp-AEEA-AEEA}-KCNTATCATQRLADFLRHSSNNLKPILPPTNVGSNT[Hyp]-NH2; disulfide 2-7)
oral bioavailability [3]: significantly improving the bioavailability
EC50 (amylin receptor (hAMY3R) [4]): 0.001 nM

CC[C@H](C)[C@H](NC(=O)[C@@H]1CCCN1C(=O)[C@H](CCCCN)NC(=O)[C@H](CC(C)C)NC(=O)[C@H](CC(N)=O)NC(=O)[C@H](CC(N)=O)NC(=O)[C@H](CO)NC(=O)[C@H](CO)NC(=O)[C@H](Cc1c[nH]cn1)NC(=O)[C@H](CCCNC(=N)N)NC(=O)[C@H](CC(C)C)NC(=O)[C@H](Cc1ccccc1)NC(=O)[C@H](CC(=O)O)NC(=O)[C@H](C)NC(=O)[C@H](CC(C)C)NC(=O)[C@H](CCCNC(=N)N)NC(=O)[C@H](CCC(N)=O)NC(=O)[C@@H](NC(=O)[C@H](C)NC(=O)[C@@H]1CSSC[C@H](NC(=O)[C@H](CCCCN)NC(=O)COCCOCCNC(=O)COCCOCCNC(=O)C[C@H](NC(=O)CCCCCCCCCCCCCCCCCCC(=O)O)C(=O)O)C(=O)N[C@@H](CC(N)=O)C(=O)N[C@@H]([C@@H](C)O)C(=O)N[C@@H](C)C(=O)N[C@@H]([C@@H](C)O)C(=O)N1)[C@@H](C)O)C(=O)N[C@@H](CC(C)C)C(=O)N1CCC[C@H]1C(=O)N1CCC[C@H]1C(=O)N[C@H](C(=O)N[C@@H](CC(N)=O)C(=O)N[C@H](C(=O)NCC(=O)N[C@@H](CO)C(=O)N[C@@H](CC(N)=O)C(=O)N[C@H](C(=O)N1C[C@H](O)C[C@H]1C(N)=O)[C@@H](C)O)C(C)C)[C@@H](C)O [N2] ({C20 diacid-βAsp-AEEA-AEEA}-KCNTATCATQRLADFLRHSSNNLKPILPPTNVGSNT[Hyp]-NH2; disulfide 2-7 (inferred))
oral bioavailability [3]: extraordinarily high oral bioavailability

B1: M5 (peptide)
peptide: ASQLSTAVLGRLSQELHRLQDYPRTDVGSGSP-NH2
EC50, CRE-luciferase reporter in amylin receptor CHO cells, 24 h (amylin receptor (hAMY3R) [5]): 0.033 nM
